Earlier results in patent US20190328884A1, “COMPOSITIONS AND METHODS OF THEIR USE” (Chemic Laboratories, Inc., priority 2018, published 2019).

Settings: in vivo

NC(=O)N1c2ccccc2C=Cc2ccccc21 [carbamezepine]
decrease in white blood cell count: 25% | increase in the risk of blood dyscrasias: five- to eight | patients shown to have a 25% decrease in their white blood cell count: 7%
